Assay [1] relates to myc2345 (DNA, G4) TGAGGGTGGGGAGGGTGGGGAA
As to the kind of experiment: displacement of DAOTA-M2 followed by fluorescence lifetime (FLIM). The note with it: 100 mM K+; 10 mM lithium cacodylate pH 7.3; DAOTA-M2 displaced, duplex DNA present.

Assay [2] has as its system ss17 (DNA, single strand) CCAGTTCGTAGTAACCC
The assay is described as follows: fluorescence emission titration. The note with it: 100 mM K+; 10 mM lithium cacodylate pH 7.3, 2 μM compound; per five-base motif; log Ka 5.7-6.1 over all DNAs.

The test system of assay [3] is ds17 (DNA, duplex) CCAGTTCGTAGTAACCC/GGGTTACTACGAACTGG
The assay is described as follows: fluorescence emission titration. The settings on record: 100 mM K+; 10 mM lithium cacodylate pH 7.3, 2 μM compound; per binding motif; log Ka 5.7-6.1 over all DNAs.

Assay [4] concerns TBA (DNA, G4) GGTTGGTGTGGTTGG
As to the kind of experiment: fluorescence emission titration. The settings on record: 100 mM K+; 10 mM lithium cacodylate pH 7.3, 2 μM compound; log Ka 5.7-6.1 over all DNAs.

Assay [5] deals with myc2345 (DNA, G4) TGAGGGTGGGGAGGGTGGGGAA
The assay is described as follows: fluorescence emission titration. The note with it: 100 mM K+; 10 mM lithium cacodylate pH 7.3, 2 μM compound; per binding motif; log Ka 5.7-6.1 over all DNAs.

The subject of assay [6] is PDGF-A (DNA, G4) GGAGGCGGGGGGGGGGGGGCGGGGGCGGGGGCGGGGGAGGGGCGCGGC
The assay is described as follows: fluorescence emission titration. The note with it: 100 mM K+ (DNA annealed in 25 mM K+); 10 mM lithium cacodylate pH 7.3, 2 μM compound; per binding motif; log Ka 5.7-6.1 over all DNAs.

`NCCOc1cc(C(=O)Nc2cc(OCCN)c3ccccc3n2)nc(C(=O)Nc2cc(OCCN)c3ccccc3n2)c1`: the binding result in assay [1] is given as “yes”.

For `c1cc2oc3cccc4c3[c+]3c2c(c1)n(CCN1CCOCC1)c1cccc(c13)n4CCN1CCOCC1`, the binding entry in assay [2], in assay [3], in assay [4] and in assay [5] was “yes” each time. The compound further returned a Ka in assay [6] of 761000 M⁻¹.
